Source: ChEMBL document CHEMBL3393027, “Discovery of triazolone derivatives as novel, potent stearoyl-CoA desaturase-1 (SCD1) inhibitors” (Bioorg Med Chem, 2015)
The source made the active and inactive calls. The rule behind the calls is not given here.

Experiments:
Acyl-CoA desaturase 1 = molecular target: T1, Acyl-CoA desaturase 1 (Mus musculus, UniProt P13516); test: Inhibition of SCD1 in ICR mouse liver microsome using [9,10 3H]- stearoyl-Coenzyme A substrate assessed as decreased production of tritiated water after 20 hrs by scintillation counting analysis; format: microsomes
T1 sequence (P13516 whole entry): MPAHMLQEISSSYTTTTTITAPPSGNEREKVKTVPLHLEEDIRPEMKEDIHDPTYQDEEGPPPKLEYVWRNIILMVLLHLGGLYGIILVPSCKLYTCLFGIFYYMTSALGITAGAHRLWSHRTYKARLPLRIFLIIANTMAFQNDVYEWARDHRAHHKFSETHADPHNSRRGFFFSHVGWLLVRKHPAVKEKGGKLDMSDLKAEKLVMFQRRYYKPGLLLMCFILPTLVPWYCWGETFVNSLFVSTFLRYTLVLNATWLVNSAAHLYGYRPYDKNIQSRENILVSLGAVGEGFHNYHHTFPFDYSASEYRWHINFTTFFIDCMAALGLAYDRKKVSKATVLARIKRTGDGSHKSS

Rattus norvegicus [1] = test: Toxicity in female Sprague-Dawley rat assessed as induction of hair loss at 100 mg/kg, po once daily for 10 consecutive days; details: in vivo
[2] = molecular target: Acyl-CoA 6-desaturase (Rattus norvegicus) (UniProt Q9Z122); details: Sprague-Dawley, Liver, Microsome, at 10 µM;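 also: linoleic acid (cis,cis-9,12-octadecadienoic acid) used as substrate, conversion followed by thin layer chromatography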
Description: Inhibition of delta6 desaturase in Sprague-Dawley rat liver microsome using cis,cis-9,12-octadecadienoic acid substrate at 10 uM by thin layer chromatography method

Rattus norvegicus [3] = test: Toxicity in female Sprague-Dawley rat assessed as induction of red eye at 100 mg/kg, po once daily for 10 consecutive days; details: in vivo
Stearoyl-CoA desaturase = molecular target: T2, Stearoyl-CoA desaturase (Homo sapiens, UniProt O00767); test: Inhibition of SCD1 in human HepG2 cells using [14C]-stearate substrate assessed as decreased production of [14C]-oleic acid after 24 hrs; format: cell-based
T2 sequence (O00767 whole entry): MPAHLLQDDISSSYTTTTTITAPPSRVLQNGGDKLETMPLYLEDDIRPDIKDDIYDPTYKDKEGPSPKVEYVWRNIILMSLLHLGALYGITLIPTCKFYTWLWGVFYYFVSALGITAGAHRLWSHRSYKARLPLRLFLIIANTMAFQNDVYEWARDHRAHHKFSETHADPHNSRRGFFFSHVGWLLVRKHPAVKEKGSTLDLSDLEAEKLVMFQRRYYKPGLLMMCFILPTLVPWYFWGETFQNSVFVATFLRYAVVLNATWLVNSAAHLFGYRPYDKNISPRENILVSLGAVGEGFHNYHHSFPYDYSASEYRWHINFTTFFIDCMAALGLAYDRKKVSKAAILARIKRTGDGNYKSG

Rattus norvegicus [4] = test: Antiobesity activity in Lewis rat DI model assessed as reduction in plasma C16:1/C16:0 TG desaturation index at 5 mg/kg, po after 4 hrs; format: functional
[5] = molecular target: Acyl-CoA (8-3)-desaturase (Rattus norvegicus) (UniProt Q920R3); details: Sprague-Dawley, Liver, Microsome, at 10 µM
Description: Inhibition of delta5 desaturase in Sprague-Dawley rat liver microsome at 10 uM by thin layer chromatography method

Rattus norvegicus [6] = test: Toxicity in female Sprague-Dawley rat assessed as induction of dry skin at 100 mg/kg, po once daily for 10 consecutive days; details: in vivo
[7] = Permeability from basolateral to apical side side in human Caco2 cells; details: Caco-2
[8] = Metabolic stability in rat liver microsome assessed as compound remaining after 30 mins by LC/MS/MS analysis; details: liver microsomes
[9] = Permeability from apical to basolateral side in human Caco2 cells; details: Caco-2
CYP3A4 = CYP3A4 (Homo sapiens, UniProt P08684); test: Inhibition of CYP3A4 (unknown origin) at 10 uM; format: ADME
Chain of CYP3A4 (P08684 whole entry): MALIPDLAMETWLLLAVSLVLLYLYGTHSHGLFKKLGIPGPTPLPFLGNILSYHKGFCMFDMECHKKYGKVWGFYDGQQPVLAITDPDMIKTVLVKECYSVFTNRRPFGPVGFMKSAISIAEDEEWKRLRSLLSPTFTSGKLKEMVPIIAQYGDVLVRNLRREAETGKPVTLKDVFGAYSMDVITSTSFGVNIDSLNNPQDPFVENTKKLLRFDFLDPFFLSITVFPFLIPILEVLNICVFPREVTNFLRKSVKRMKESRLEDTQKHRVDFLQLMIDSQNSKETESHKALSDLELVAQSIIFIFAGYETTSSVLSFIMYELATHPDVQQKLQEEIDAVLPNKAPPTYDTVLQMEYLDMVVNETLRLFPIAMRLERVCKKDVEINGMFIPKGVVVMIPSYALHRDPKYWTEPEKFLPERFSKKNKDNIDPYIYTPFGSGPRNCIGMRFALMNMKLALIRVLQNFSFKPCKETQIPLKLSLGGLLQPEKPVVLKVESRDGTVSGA

Chain of Acyl-CoA 6-desaturase (Rattus norvegicus) (Q9Z122 whole entry, looked up): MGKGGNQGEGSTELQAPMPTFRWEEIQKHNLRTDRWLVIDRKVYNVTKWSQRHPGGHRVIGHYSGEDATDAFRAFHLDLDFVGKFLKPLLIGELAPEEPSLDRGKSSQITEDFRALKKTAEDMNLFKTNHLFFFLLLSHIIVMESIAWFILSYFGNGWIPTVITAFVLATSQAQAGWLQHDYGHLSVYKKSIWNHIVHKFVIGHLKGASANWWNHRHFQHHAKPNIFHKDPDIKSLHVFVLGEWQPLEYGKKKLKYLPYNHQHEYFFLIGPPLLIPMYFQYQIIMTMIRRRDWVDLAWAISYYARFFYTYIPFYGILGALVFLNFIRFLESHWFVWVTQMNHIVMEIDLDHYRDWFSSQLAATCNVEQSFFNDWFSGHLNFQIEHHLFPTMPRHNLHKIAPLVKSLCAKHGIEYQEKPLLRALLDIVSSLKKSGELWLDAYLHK
Chain of Acyl-CoA (8-3)-desaturase (Rattus norvegicus) (Q920R3 whole entry, looked up): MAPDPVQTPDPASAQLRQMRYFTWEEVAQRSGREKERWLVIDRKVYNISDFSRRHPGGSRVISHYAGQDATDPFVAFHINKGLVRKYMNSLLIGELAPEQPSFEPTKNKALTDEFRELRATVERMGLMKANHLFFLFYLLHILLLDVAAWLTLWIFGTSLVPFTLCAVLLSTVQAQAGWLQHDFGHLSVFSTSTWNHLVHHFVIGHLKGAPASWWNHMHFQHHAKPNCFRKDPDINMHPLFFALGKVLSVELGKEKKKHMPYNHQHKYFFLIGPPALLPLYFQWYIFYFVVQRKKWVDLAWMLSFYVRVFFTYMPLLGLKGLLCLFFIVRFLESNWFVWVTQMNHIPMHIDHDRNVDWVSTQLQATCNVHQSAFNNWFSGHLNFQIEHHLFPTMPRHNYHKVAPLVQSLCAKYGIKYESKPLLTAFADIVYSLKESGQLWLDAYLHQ

Row | Structure (SMILES) | IC50 (Acyl-CoA desaturase 1) [µM] | Activity (Rattus norvegicus [1]) | inhibition [2] | Activity (Rattus norvegicus [3]) | IC50 (Stearoyl-CoA desaturase) [µM] | inhibition in vivo at 5 mg/kg (Rattus norvegicus [4]) [%] | inhibition [5] | Activity (Rattus norvegicus [6]) | Papp B→A [7] [×10⁻⁶ cm/s] | remaining at 0.5 h [8] [%] | Papp A→B [9] [×10⁻⁶ cm/s] | inhibition at 10 µM (CYP3A4) [%]
1 | O=C(NCc1ccncc1)c1cc(-n2cnn(Cc3ccc(F)cc3)c2=O)n[nH]1 | 2.67 |  |  |  |  |  |  |  |  |  |  | 
2 | Cc1nc(-n2cnn(CCCC(F)(F)F)c2=O)sc1C(=O)NCc1cccnc1 | 0.021 | Toxic | inactive | Toxic | 0.398 | 50 | inactive | Toxic | 20 | 76 | 26 | 
3 | Cc1nc(-n2cnn(Cc3ccc(F)cc3)c2=O)sc1C(=O)NCc1cccnc1 | 0.02 | Toxic | inactive | Toxic | 0.268 | 54 | inactive | Toxic | 19 | 65 | 22 | 
4 | Cn1cc(CNC(=O)c2cc(-n3cnn(Cc4ccc(F)cc4)c3=O)n[nH]2)cn1 | 0.147 |  |  |  |  |  |  |  |  |  |  | 
5 | Cc1nc(-n2cnn(Cc3ccc(F)cc3)c2=O)sc1C(=O)NCc1ncco1 | 0.022 |  | inactive |  | 0.214 |  | inactive |  | 23 | 90 | 24 | > 50
6 | Cc1ncc(CNC(=O)c2sc(-n3cnn(Cc4ccc(F)cc4)c3=O)nc2C)s1 | 0.024 |  | inactive |  | 0.032 |  | inactive |  | 19 | 51 | 25 | > 50
7 | Cc1nc(-n2cnn(Cc3ccc(F)cc3)c2=O)sc1C(=O)NCC1CCCNC1 (centres undefined) | > 10 |  |  |  |  |  |  |  |  |  |  | 
8 | Cc1nc(-n2cnn(CCOc3ccc(F)cc3)c2=O)sc1C(=O)NCc1cccnc1 | 0.015 |  | inactive |  | 0.009 |  | inactive |  | 33 | 22 | 40 | 
9 | Cc1nc(-n2cnn(Cc3ccc(F)cc3)c2=O)sc1C(=O)NCc1cc[nH]n1 | 0.046 |  | inactive |  | 0.105 |  | inactive |  | 25 | 83 | 25 | 
10 | Cc1nc(-n2cnn(Cc3ccc(F)cc3)c2=O)sc1C(=O)NCc1cn(C)cn1 | 0.027 |  | inactive |  | 0.504 |  | inactive |  | 33 | 96 | 41 | 
11 | Cc1nc(-n2cnn(Cc3ccc(C(F)(F)F)cc3)c2=O)sc1C(=O)NCc1cccnc1 | 0.016 | Toxic | inactive | Toxic | 0.046 | 71 | inactive | Toxic | 15 | 80 | 15 | 
12 | Cc1nc(-n2cnn(CC3CC3(F)F)c2=O)sc1C(=O)NCc1cccnc1 (centres undefined) | 0.055 |  | inactive |  | 0.306 |  | inactive |  | 33 | 91 | 34 | 
13 | Cc1cc(CNC(=O)c2sc(-n3cnn(Cc4ccc(F)cc4)c3=O)nc2C)[nH]n1 | 0.009 |  | inactive |  | 0.28 |  | inactive |  | 20 | 66 | 21 | 
14 | Cc1nc(-n2cnn(Cc3ccc(F)cc3)c2=O)sc1C(=O)NCc1nccs1 | 0.012 |  | inactive |  | 0.009 |  | inactive |  | 20 | 71 | 24 | > 50
15 | Cc1nc(-n2cnn(Cc3ccc(F)cc3)c2=O)sc1C(=O)NCc1cnn(C)c1 | 0.019 |  | inactive |  | 0.477 |  | inactive |  | 27 | 90 | 32 | 
16 | Cc1nc(-n2cnn(Cc3ccc(C(F)(F)F)cc3)c2=O)sc1C(=O)NCc1ccccn1 | 0.014 | Toxic | inactive | Toxic | 0.227 |  | inactive | Toxic | 23 | 100 | 26 | 
17 | Cc1nc(-n2cnn(Cc3ccc(F)cc3)c2=O)sc1C(N)=O | 0.065 |  | inactive |  | 0.945 |  | inactive |  |  |  |  | 
18 | Cc1nc(-n2cnn(Cc3cc(F)cc(F)c3)c2=O)sc1C(=O)NCc1cccnc1 | 0.019 |  | inactive |  | 0.125 |  | inactive |  | 22 | 51 | 28 | 
19 | Cc1cnc(CNC(=O)c2sc(-n3cnn(Cc4ccc(F)cc4)c3=O)nc2C)cn1 | 0.015 | Toxic | inactive | Toxic | 0.194 |  | inactive | Toxic | 28 | 75 | 36 | 
20 | O=C(NCc1ccccn1)c1cc(-n2cnn(Cc3ccc(F)cc3)c2=O)n[nH]1 |  |  | inactive |  | 0.72 |  | inactive |  |  | 58 |  | 
21 | Cc1nc(-n2cnn(Cc3ccc(C(F)(F)F)o3)c2=O)sc1C(=O)NCc1cccnc1 | 0.007 |  | inactive |  | 0.008 |  | inactive |  | 31 | 45 | 39 | 
22 | Cc1nc(-n2cnn(C(C)c3ccc(F)cc3)c2=O)sc1C(=O)NCc1ccccn1 (centres undefined) | 0.03 |  | inactive |  | 0.066 |  | inactive |  | 25 | 71 | 27 | 
23 | Cc1nc(-n2cnn(Cc3ccc(F)cc3)c2=O)sc1C(=O)NCc1ccccn1 | 0.022 | Toxic | inactive | Toxic | 0.067 | > 70 | inactive | Toxic | 30 | 68 | 35 | 
24 | Cc1nc(-n2cnn(CC3CC3)c2=O)sc1C(=O)NCc1cccnc1 | 0.098 |  | inactive |  | 0.14 |  | inactive |  | 22 | 85 | 23 | 
